Reference: PubChem BioAssay (NCI)
Values joined by “and” are separate entries in the source; they are usually repeats but may differ in a detail not shown here. Identical values can stand only once.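 Tested at 5 concentrations; 48 h exposure; 96-well plates; endpoints linearly interpolated, else capped at highest concentration. GI50 = concentration required for 50% inhibition of growth. TGI marks complete inhibition of growth.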

Columns and labels:
Experiment in all cases: NCI tumour cell line growth inhibition, 48 h
KM12 colon = test system: KM12 colon
DU-145 prostate = test system: DU-145 prostate
PC-3 prostate = test system: PC-3 prostate
SR leukemia = test system: SR leukemia
NCI-H226 lung = test system: NCI-H226 lung
A549 NSCLC = test system: A549 NSCLC
MDA-MB-435 = test system: MDA-MB-435
IGROV1 ovarian = test system: IGROV1 ovarian
SK-OV-3 ovarian = test system: SK-OV-3 ovarian
OVCAR-4 ovarian = test system: OVCAR-4 ovarian

SMILES | GI50 (KM12 colon) | TGI (KM12 colon) | GI50 (DU-145 prostate) | TGI (DU-145 prostate) | GI50 (PC-3 prostate) | TGI (PC-3 prostate) | GI50 (SR leukemia) [µM] | TGI (SR leukemia) [µM] | GI50 (NCI-H226 lung) | TGI (NCI-H226 lung) | GI50 (A549 NSCLC) | TGI (A549 NSCLC) | GI50 (MDA-MB-435) | TGI (MDA-MB-435) | GI50 (IGROV1 ovarian) | TGI (IGROV1 ovarian) | GI50 (SK-OV-3 ovarian) | TGI (SK-OV-3 ovarian) | GI50 (OVCAR-4 ovarian) | TGI (OVCAR-4 ovarian)
CC(C)(C)[Si](C)(C)OC1[C@@H](O[Si](C)(C)C(C)(C)C)[C@@H](CNC(=O)NC(=O)NC(=O)CI)O[C@H]1n1cnc2c(NC(=O)Nc3ccccc3)ncnc21 (some centres undefined) | 0.68 µM | 3.78 µM | 8.67 µM | 20 µM | 0.385 µM | 3.42 µM | 0.0447 | 0.159 | 10.4 µM | 20.6 µM | 1.57 µM | 11.9 µM | 7.83 µM | 20.8 µM | 0.113 µM | 0.246 µM | 10.4 µM | 27.9 µM | 0.665 µM | 2.36 µM
OCc1ccc(N(Cc2ccc(F)cc2)C2CCC2)cc1Cl | 14.5 µM | 28.7 µM | 14.2 µM | 28 µM | 11.9 µM | 24.8 µM | 15.3 | 35 | 0.0569 µM | 0.193 µM | 2.04 µM | 17.9 µM | 16.2 µM | 31.1 µM | 0.0698 µM | 0.339 µM | 11 µM | 23 µM | 0.207 µM | 2.69 µM
CC1/C=C/C=C/CC/C=C/C=C/C=C/C=C/C(OC2OC(C)C(O)C(N)C2O)CC2OC(CC(O)C(O)CCC(O)CC(O)CC(O)CC(=O)OC(C)C(C)C1O)CC(O)C2C(=O)O (centres undefined) | 53 µg/mL | 61.5 µM and 150 µg/mL | 32.3 µg/mL | 32.4 µM and 73.5 µg/mL | 31.2 µg/mL | 36.4 µM and 75.7 µg/mL | – | 35.5 | 28.7 µg/mL | 28.3 µM and 53.6 µg/mL | 24.5 µg/mL | 33 µM and 46.3 µg/mL | 28.1 µg/mL | 31.9 µM and 50.1 µg/mL | 23.4 µg/mL | 32.2 µM and 52.1 µg/mL | 47.1 µg/mL | 44.4 µM and 136 µg/mL | 23.9 µg/mL | 29.4 µM and 52.5 µg/mL
COc1ccc(C(=O)c2cc(OC)c(OC)c(OC)c2)cc1/C=C/C(=O)c1ccc(O)cc1 | 2.44 µM | 7.05 µM | 1.88 µM | 3.45 µM | 1.69 µM | 4.71 µM | 0.433 | > 100 | 2.5 µM | 7.78 µM | 18.7 µM | > 100 µM | 1.18 µM | 11.3 µM | 9.94 µM | 34.8 µM | 16.3 µM | > 100 µM | 2.73 µM | 58.4 µM
CCOC(=O)c1sc2ncn(Cc3cccc(Cl)c3)c(=O)c2c1C | 13.7 µM | 37.9 µM | 17.7 µM | 31.5 µM | 13.1 µM | 25.8 µM | 3.33 | 12.7 | 12.9 µM | 25.8 µM | 16.4 µM | 30 µM | 13.9 µM | 26.9 µM | 8.89 µM | 21.2 µM | 17.4 µM | 31.2 µM | 16.2 µM | 29.7 µM
O=C(Nc1ncc([N+](=O)[O-])s1)c1cccc([N+](=O)[O-])c1 | 4.61 µM | 65.6 µM | 9.89 µM | > 100 µM | 2.99 µM | > 100 µM | 2.36 | 9.01 | 4.1 µM | > 60.1 µM | 4.24 µM | 42.5 µM | 3.16 µM | 20.9 µM | 3.98 µM | > 56.3 µM | 3.72 µM | 35.7 µM | 3.97 µM | > 100 µM
CCN(Cc1ccc(F)cc1F)c1ccc(CO)c(Cl)c1 | 16.6 µM | 32.9 µM | 20.1 µM | > 70.9 µM | 16.3 µM | 49.2 µM | 23.2 | 82.1 | 0.0945 µM | 0.219 µM | 1.85 µM | 21.2 µM | 21 µM | > 59.6 µM | 0.105 µM | 0.518 µM | 7.65 µM | 22.1 µM | 0.218 µM | 1.65 µM
O=C1NC(=O)C2=C1CCC2O (centres undefined) | – | > 100 µM | – | > 100 µM | – | > 100 µM | – | > 100 | – | > 100 µM | – | > 100 µM | – | > 100 µM | – | > 100 µM | – | > 100 µM | – | > 100 µM
